Test results: the supplement of paper PMC10883282
± gives the standard deviation of the averaged measurements.

System: KHOS-240S
Assay: relative viability vs DMSO control (72 h) (fraction); higher = more viable cells
In short: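 Sarcoma cell lines were seeded in 384-well plates at densities set to reach 80–90% confluence. After 24 h, 2.5 µl of serially diluted compound was added (source plates 10 mM to 0.0002 mM), and plates were held 72 h at 37 °C, 5% CO2, with 0.1% DMSO vehicle and a 5 µM positive control. Relative viability came from ATPLite readings as percent growth, averaged over up to triplicate wells. Data were rescaled so full viability equals 1 and none equals 0.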

SMILES | relative viability (0.00017 µM) | relative viability (0.00051 µM) | relative viability (0.00152 µM) | relative viability (0.00457 µM) | relative viability (0.01372 µM) | relative viability (0.04115 µM) | relative viability (0.1235 µM) | relative viability (0.3704 µM) | relative viability (1.111 µM) | relative viability (3.333 µM) | relative viability (10 µM) | relative viability (2 pM) | relative viability (5 pM) | relative viability (15 pM) | relative viability (50 pM) | relative viability (0.00014 µM) | relative viability (0.00041 µM) | relative viability (0.0012 µM) | relative viability (0.0037 µM) | relative viability (0.011 µM) | relative viability (200 fM) | relative viability (600 fM)
CC(C)NC(=O)C1CCC(n2c(NC(=O)c3ccc(F)cc3)nc3ccc(CN4CCC(C(C)(C)O)CC4)cc32)CC1 (centres undefined) [Belizatinib] | 1.07 ± 0.02 | 1.06 ± 0.012 | 1.07 ± 0.043 | 1.08 ± 0.013 | 1.08 ± 0.041 | 1.06 ± 0.033 | 1.06 ± 0.034 | 0.923 ± 0.02 | 0.713 ± 0.038 | 0.399 ± 0.0041 | 0.189 ± 0.0089 |  |  |  |  |  |  |  |  |  |  | 
C=CC(=O)N1CCC[C@@H](n2nc(-c3ccc(Oc4ccccc4)cc3)c3c(N)ncnc32)C1 [Ibrutinib] | 1.03 ± 0.038 | 1.08 ± 0.064 | 1.09 ± 0.078 | 1.09 ± 0.079 | 1.05 ± 0.054 | 1.08 ± 0.053 | 1.05 ± 0.1 | 1.05 ± 0.081 | 0.979 ± 0.045 | 0.884 ± 0.035 | 0.587 ± 0.015 |  |  |  |  |  |  |  |  |  |  | 
O=C(Cc1ccc(-c2ccc(OCCN3CCOCC3)cc2)cn1)NCc1ccccc1 [KX2-391] | 1.07 ± 0.025 | 1.1 ± 0.037 | 1.1 ± 0.02 | 1.07 ± 0.035 | 1.06 ± 0.049 | 0.896 ± 0.022 | 0.26 ± 0.013 | 0.221 ± 0.014 | 0.161 ± 0.011 | 0.142 ± 0.02 | 0.134 ± 0.015 |  |  |  |  |  |  |  |  |  |  | 
CC(=O)Nc1cccc(-n2c(=O)n(C3CC3)c(=O)c3c(Nc4ccc(I)cc4F)n(C)c(=O)c(C)c32)c1 [Trametinib] | 1.07 ± 0.038 | 1.07 ± 0.014 | 1.04 ± 0.027 | 1.02 ± 0.057 | 0.876 ± 0.04 | 0.764 ± 0.029 | 0.719 ± 0.028 | 0.717 ± 0.05 | 0.731 ± 0.023 | 0.666 ± 0.01 | 0.641 ± 0.017 |  |  |  |  |  |  |  |  |  |  | 
COc1cc2nccc(Oc3ccc(NC(=O)Nc4cc(C)on4)c(Cl)c3)c2cc1OC [Tivozanib] | 1.07 ± 0.061 | 1.07 ± 0.061 | 1.09 ± 0.071 | 1.09 ± 0.059 | 1.08 ± 0.025 | 1.07 ± 0.041 | 1.06 ± 0.018 | 1.045 ± 0.0038 | 1.02 ± 0.042 | 0.908 ± 0.027 | 0.561 ± 0.02 |  |  |  |  |  |  |  |  |  |  | 
COc1cc2c(cc1O)CCN[C@]21CS[C@@H]2c3c(OC(C)=O)c(C)c4c(c3[C@H](COC1=O)N1[C@@H]2[C@H]2c3c(cc(C)c(OC)c3O)C[C@@H]([C@@H]1O)N2C)OCO4 [Trabectedin] |  |  |  |  |  |  |  |  |  |  |  | 1.07 ± 0.015 | 1.082 ± 0.0023 | 1.07 ± 0.042 | 0.946 ± 0.034 | 0.482 ± 0.054 | 0.00547 ± 0.0011 | 0.0576 ± 0.0015 | 0.0794 ± 0.014 | 0.0885 ± 0.032 | 1.08 ± 0.022 | 1.08 ± 0.022
CNC(=O)c1cc(Oc2ccc(NC(=O)Nc3ccc(Cl)c(C(F)(F)F)c3)c(F)c2)ccn1 [Regorafenib] | 1.05 ± 0.055 | 1.09 ± 0.052 | 1.07 ± 0.051 | 1.07 ± 0.053 | 1.1 ± 0.059 | 1.1 ± 0.049 | 1.09 ± 0.04 | 1.04 ± 0.014 | 0.96 ± 0.09 | 0.812 ± 0.045 | 0.5087 ± 0.00089 |  |  |  |  |  |  |  |  |  |  | 
C[C@@H]1CCN(C(=O)CC#N)C[C@@H]1N(C)c1ncnc2[nH]ccc12 [Tofacitinib] | 1.08 ± 0.068 | 1.05 ± 0.038 | 1.08 ± 0.062 | 1.09 ± 0.069 | 1.05 ± 0.031 | 1.05 ± 0.034 | 1.06 ± 0.08 | 1.03 ± 0.043 | 1.01 ± 0.076 | 0.977 ± 0.021 | 0.853 ± 0.075 |  |  |  |  |  |  |  |  |  |  | 
COc1cc2c(Oc3ccc4[nH]c(C)cc4c3F)ncnc2cc1OCCCN1CCCC1 [Cediranib] | 1.06 ± 0.017 | 1.05 ± 0.021 | 1.082 ± 0.0088 | 1.07 ± 0.02 | 1.05 ± 0.013 | 1.03 ± 0.011 | 0.992 ± 0.015 | 0.922 ± 0.022 | 0.908 ± 0.013 | 0.906 ± 0.032 | 0.898 ± 0.015 |  |  |  |  |  |  |  |  |  |  | 
CC[C@H](Nc1ncnc2[nH]cnc12)c1nc2cccc(F)c2c(=O)n1-c1ccccc1 [Idelalisib] | 1.1 ± 0.062 | 1.11 ± 0.064 | 1.11 ± 0.056 | 1.1 ± 0.065 | 1.09 ± 0.071 | 1.08 ± 0.068 | 1.08 ± 0.051 | 1.06 ± 0.078 | 1.03 ± 0.058 | 0.942 ± 0.074 | 0.901 ± 0.079 |  |  |  |  |  |  |  |  |  |  | 
Cc1cc(Nc2ncnc3ccc(NC4=NC(C)(C)CO4)cc23)ccc1Oc1ccn2ncnc2c1 [Tucatinib] | 1.06 ± 0.019 | 1.11 ± 0.022 | 1.09 ± 0.036 | 1.07 ± 0.031 | 1.075 ± 0.0081 | 1.09 ± 0.03 | 1.08 ± 0.025 | 1.07 ± 0.027 | 1.05 ± 0.054 | 1.01 ± 0.022 | 0.953 ± 0.051 |  |  |  |  |  |  |  |  |  |  | 
Cn1cc(-c2cc3c(N4CCN(c5ncc([C@@](C)(N)c6ccc(F)cc6)cn5)CC4)ncnn3c2)cn1 [Avapritinib] | 1.03 ± 0.022 | 1.025 ± 0.0056 | 1 ± 0.039 | 0.992 ± 0.038 | 1.02 ± 0.033 | 1.01 ± 0.014 | 0.965 ± 0.024 | 0.943 ± 0.021 | 0.84 ± 0.026 | 0.783 ± 0.027 | 0.656 ± 0.025 |  |  |  |  |  |  |  |  |  |  | 
CC(C)(C)c1cc(NC(=O)Nc2ccc(-c3cn4c(n3)sc3cc(OCCN5CCOCC5)ccc34)cc2)no1 [Quizartinib] | 1.06 ± 0.037 | 1.05 ± 0.011 | 1.05 ± 0.025 | 1.05 ± 0.02 | 1.06 ± 0.026 | 1.049 ± 0.0031 | 1.03 ± 0.029 | 1.01 ± 0.027 | 0.994 ± 0.036 | 0.796 ± 0.05 | 0.7219 ± 0.0064 |  |  |  |  |  |  |  |  |  |  | 
O=C(Nc1cnn2ccc(N3CCC[C@@H]3c3cc(F)ccc3F)nc12)N1CC[C@H](O)C1 [Larotrectinib] | 1.1 ± 0.045 | 1.07 ± 0.064 | 1.1 ± 0.091 | 1.07 ± 0.093 | 1.05 ± 0.066 | 1.05 ± 0.02 | 1.09 ± 0.066 | 1.09 ± 0.068 | 1.06 ± 0.06 | 1.07 ± 0.079 | 1.05 ± 0.082 |  |  |  |  |  |  |  |  |  |  | 
